Source: ChEMBL document CHEMBL3352334, “Design, synthesis and pharmacological evaluation of 2-(thiazol-2-amino)-4-arylaminopyrimidines as potent anaplastic lymphoma kinase (ALK) inhibitors” (Eur J Med Chem, 2014)

Tests used:
[1] = Antiproliferative activity against human SUP-M2 cells assessed as growth inhibition at 1000 nM after 72 hrs by SRB assay; format: functional; settings: SUP-M2, 72 h, read-out: GI
[2] = Antiproliferative activity against human SUP-M2 cells assessed as growth inhibition at 200 nM after 72 hrs by SRB assay; format: functional; settings: SUP-M2, 72 h, read-out: GI
[3] = target: T1, ALK tyrosine kinase receptor (Homo sapiens, UniProt Q9UM73); experiment: Inhibition of purified ALK (unknown origin) after 60 mins by ELISA kinase assay
Target sequence in this assay (Q9UM73 whole entry): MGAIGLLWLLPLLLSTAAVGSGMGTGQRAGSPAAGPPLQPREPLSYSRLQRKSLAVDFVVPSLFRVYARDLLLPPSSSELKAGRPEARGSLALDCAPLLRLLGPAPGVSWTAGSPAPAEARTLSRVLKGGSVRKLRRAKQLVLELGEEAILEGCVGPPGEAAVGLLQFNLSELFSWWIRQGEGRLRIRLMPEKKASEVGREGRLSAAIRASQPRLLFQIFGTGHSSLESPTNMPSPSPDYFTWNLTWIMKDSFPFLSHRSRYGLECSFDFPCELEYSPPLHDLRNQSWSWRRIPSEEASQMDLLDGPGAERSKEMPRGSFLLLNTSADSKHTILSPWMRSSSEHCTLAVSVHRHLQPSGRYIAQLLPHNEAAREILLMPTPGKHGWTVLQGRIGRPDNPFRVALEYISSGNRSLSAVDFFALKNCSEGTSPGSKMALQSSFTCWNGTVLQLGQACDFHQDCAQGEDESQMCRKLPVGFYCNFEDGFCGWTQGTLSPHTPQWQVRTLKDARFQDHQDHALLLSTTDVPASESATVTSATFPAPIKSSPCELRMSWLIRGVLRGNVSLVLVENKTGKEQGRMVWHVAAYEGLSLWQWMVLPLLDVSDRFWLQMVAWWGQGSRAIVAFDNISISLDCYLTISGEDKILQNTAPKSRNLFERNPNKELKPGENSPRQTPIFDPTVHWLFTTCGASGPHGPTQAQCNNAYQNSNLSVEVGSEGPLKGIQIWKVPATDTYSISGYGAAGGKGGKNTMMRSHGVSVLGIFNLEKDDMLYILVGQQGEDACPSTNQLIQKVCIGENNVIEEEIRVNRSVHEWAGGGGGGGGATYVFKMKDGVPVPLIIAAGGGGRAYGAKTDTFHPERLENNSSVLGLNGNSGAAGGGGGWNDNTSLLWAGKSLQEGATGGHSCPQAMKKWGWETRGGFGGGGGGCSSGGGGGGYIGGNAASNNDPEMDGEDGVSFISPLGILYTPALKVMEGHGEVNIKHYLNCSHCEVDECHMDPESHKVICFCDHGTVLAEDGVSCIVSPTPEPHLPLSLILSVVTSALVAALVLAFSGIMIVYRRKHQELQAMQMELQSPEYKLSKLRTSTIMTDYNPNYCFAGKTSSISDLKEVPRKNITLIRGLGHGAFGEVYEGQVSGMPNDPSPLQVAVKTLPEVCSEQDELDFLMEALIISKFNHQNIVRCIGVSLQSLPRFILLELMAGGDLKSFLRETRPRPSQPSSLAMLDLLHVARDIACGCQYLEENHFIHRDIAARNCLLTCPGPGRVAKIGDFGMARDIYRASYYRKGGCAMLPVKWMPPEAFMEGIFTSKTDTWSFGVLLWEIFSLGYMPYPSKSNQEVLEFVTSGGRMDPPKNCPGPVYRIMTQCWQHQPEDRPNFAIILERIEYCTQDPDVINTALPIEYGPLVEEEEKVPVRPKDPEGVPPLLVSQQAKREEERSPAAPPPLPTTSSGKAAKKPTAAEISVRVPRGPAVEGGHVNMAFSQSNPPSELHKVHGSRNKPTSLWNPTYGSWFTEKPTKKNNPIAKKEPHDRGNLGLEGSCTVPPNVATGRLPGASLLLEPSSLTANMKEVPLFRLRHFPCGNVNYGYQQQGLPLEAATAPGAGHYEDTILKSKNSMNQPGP

[4] = target: T2, Hepatocyte growth factor receptor (Homo sapiens, UniProt P08581); experiment: Inhibition of purified c-MET (unknown origin) at 1 uM after 60 mins by ELISA kinase assay
T2 sequence (P08581 whole entry): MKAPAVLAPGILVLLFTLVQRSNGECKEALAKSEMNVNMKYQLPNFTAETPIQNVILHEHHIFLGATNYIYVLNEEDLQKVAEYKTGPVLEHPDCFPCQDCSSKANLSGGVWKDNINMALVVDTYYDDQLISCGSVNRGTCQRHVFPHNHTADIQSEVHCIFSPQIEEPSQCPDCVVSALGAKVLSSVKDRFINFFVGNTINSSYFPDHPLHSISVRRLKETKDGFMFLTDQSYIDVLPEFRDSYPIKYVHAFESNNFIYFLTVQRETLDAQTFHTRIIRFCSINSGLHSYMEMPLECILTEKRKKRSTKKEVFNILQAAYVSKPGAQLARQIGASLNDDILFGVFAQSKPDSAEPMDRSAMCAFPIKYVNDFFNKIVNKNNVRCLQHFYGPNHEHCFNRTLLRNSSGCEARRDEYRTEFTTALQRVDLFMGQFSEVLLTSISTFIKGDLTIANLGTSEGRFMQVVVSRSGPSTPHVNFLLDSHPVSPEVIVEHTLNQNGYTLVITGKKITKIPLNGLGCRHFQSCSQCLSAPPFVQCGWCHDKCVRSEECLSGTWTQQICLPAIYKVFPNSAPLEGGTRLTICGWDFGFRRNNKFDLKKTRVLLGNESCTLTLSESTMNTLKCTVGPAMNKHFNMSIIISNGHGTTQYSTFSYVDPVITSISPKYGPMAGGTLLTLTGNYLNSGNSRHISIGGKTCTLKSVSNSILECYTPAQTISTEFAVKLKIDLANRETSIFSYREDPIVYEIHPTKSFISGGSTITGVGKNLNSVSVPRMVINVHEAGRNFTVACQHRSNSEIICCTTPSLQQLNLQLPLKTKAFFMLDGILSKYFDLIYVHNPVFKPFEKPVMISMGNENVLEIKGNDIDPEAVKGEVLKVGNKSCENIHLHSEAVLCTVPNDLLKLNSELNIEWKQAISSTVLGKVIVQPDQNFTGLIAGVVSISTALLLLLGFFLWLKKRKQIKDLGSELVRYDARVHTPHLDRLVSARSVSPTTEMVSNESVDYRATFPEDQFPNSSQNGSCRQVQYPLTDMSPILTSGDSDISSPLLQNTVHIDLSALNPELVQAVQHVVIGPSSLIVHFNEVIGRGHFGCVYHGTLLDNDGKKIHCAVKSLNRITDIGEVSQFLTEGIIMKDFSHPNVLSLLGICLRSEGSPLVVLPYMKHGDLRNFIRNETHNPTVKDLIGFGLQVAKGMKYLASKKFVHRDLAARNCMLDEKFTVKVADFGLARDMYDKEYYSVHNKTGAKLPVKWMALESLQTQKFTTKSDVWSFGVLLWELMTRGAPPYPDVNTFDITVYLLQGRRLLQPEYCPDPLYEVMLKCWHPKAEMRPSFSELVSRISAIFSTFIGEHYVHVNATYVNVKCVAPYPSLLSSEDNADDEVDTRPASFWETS

[5] = target: Insulin-like growth factor 1 receptor (Homo sapiens) (UniProt P08069); experiment: Inhibition of purified IGF1R (unknown origin) at 1 uM after 60 mins by ELISA kinase assay
Chain of Insulin-like growth factor 1 receptor (Homo sapiens) (P08069 31-736 limits assumed): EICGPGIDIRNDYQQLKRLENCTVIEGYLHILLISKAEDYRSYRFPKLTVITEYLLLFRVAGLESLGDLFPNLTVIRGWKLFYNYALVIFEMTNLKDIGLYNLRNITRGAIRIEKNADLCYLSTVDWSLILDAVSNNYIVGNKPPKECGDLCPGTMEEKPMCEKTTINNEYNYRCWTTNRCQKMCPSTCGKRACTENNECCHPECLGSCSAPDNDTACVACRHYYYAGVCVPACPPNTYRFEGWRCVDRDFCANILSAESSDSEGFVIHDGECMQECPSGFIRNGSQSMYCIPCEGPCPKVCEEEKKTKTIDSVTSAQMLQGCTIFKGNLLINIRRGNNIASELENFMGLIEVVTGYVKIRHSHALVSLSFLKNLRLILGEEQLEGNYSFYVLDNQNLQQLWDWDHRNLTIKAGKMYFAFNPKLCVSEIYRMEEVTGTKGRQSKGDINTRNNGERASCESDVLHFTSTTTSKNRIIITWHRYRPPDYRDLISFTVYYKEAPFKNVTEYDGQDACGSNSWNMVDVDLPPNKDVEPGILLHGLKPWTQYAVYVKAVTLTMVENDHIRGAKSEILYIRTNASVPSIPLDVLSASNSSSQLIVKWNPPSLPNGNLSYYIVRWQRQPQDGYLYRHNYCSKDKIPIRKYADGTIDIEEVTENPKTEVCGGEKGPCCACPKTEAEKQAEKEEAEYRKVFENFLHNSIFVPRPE
Chain of Insulin-like growth factor 1 receptor (Homo sapiens) (P08069 741-1367 limits assumed): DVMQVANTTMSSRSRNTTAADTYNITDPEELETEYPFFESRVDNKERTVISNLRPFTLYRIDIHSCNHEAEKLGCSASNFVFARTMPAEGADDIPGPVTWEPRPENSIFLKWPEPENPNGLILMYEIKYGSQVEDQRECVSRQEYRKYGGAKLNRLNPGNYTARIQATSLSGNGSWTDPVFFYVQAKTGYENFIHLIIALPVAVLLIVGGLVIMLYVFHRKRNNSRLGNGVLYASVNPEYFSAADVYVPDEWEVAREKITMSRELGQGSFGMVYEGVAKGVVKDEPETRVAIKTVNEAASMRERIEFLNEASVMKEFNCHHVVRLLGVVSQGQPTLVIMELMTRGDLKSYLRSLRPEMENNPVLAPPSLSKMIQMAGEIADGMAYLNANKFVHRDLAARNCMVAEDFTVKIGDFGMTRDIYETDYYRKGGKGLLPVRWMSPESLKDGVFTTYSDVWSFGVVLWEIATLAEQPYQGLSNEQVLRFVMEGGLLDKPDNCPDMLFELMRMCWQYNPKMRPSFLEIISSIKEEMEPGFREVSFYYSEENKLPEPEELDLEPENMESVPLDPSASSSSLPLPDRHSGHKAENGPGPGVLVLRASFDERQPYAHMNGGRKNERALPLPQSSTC

[6] = target: Proto-oncogene tyrosine-protein kinase Src (Homo sapiens) (UniProt P12931); experiment: Inhibition of purified c-Src (unknown origin) at 1 uM after 60 mins by ELISA kinase assay
Chain of Proto-oncogene tyrosine-protein kinase Src (Homo sapiens) (P12931 2-536 limits assumed): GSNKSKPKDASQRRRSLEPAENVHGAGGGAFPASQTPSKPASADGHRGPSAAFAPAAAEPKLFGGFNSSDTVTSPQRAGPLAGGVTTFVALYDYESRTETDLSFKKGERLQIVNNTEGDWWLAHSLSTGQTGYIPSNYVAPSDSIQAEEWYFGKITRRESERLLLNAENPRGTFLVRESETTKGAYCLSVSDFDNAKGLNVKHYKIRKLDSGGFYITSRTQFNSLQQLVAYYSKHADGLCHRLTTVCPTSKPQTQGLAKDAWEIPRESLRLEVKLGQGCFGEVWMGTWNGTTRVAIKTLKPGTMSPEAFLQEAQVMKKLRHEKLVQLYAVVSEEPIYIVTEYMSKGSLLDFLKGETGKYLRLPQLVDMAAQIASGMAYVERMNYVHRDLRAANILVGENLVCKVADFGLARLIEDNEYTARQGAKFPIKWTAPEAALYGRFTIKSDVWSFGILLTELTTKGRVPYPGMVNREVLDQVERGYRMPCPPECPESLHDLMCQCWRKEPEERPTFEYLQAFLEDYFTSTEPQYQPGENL

[7] = target: Proto-oncogene tyrosine-protein kinase receptor Ret (Homo sapiens) (UniProt P07949); experiment: Inhibition of purified RET (unknown origin) at 1 uM after 60 mins by ELISA kinase assay
[8] = target: Vascular endothelial growth factor receptor 1 (Homo sapiens) (UniProt P17948); experiment: Inhibition of purified Flt-1 (unknown origin) at 1 uM after 60 mins by ELISA kinase assay
[9] = target: Ephrin type-A receptor 2 (Homo sapiens) (UniProt P29317); experiment: Inhibition of purified EPH-A2 (unknown origin) at 1 uM after 60 mins by ELISA kinase assay
[10] = target: Tyrosine-protein kinase ABL1 (Homo sapiens) (UniProt P00519); experiment: Inhibition of purified Abl (unknown origin) at 1 uM after 60 mins by ELISA kinase assay
[11] = target: Receptor tyrosine-protein kinase erbB-4 (Homo sapiens) (UniProt Q15303); experiment: Inhibition of purified ErbB4 (unknown origin) at 1 uM after 60 mins by ELISA kinase assay
[12] = target: T2, Hepatocyte growth factor receptor; experiment: Inhibition of purified c-MET (unknown origin) after 60 mins by ELISA kinase assay
[13] = target: Receptor-type tyrosine-protein kinase FLT3 (Homo sapiens) (UniProt P36888); experiment: Inhibition of purified Flt-3 (unknown origin) at 1 uM after 60 mins by ELISA kinase assay
[14] = target: T1, ALK tyrosine kinase receptor; settings: 1 uM
Description: Inhibition of purified ALK (unknown origin) at 1 uM after 60 mins by ELISA kinase assay

[15] = target: ALK tyrosine kinase receptor (Homo sapiens, UniProt Q9UM73, L1196M); experiment: Inhibition of purified ALK L1196M mutant (unknown origin) after 60 mins by ELISA kinase assay
[16] = target: Platelet-derived growth factor receptor alpha (Homo sapiens) (UniProt P16234); experiment: Inhibition of purified PDGFRalpha (unknown origin) at 1 uM after 60 mins by ELISA kinase assay
[17] = target: Platelet-derived growth factor receptor beta (Homo sapiens) (UniProt P09619); experiment: Inhibition of purified PDGFRbeta (unknown origin) at 1 uM after 60 mins by ELISA kinase assay
[18] = target: Epidermal growth factor receptor (Homo sapiens) (UniProt P00533); experiment: Inhibition of purified EGFR (unknown origin) at 1 uM after 60 mins by ELISA kinase assay
[19] = target: Fibroblast growth factor receptor 1 (Homo sapiens) (UniProt P11362); experiment: Inhibition of purified FGFR1 (unknown origin) at 1 uM after 60 mins by ELISA kinase assay
[20] = target: Vascular endothelial growth factor receptor 2 (Homo sapiens) (UniProt P35968); experiment: Inhibition of purified KDR (unknown origin) at 1 uM after 60 mins by ELISA kinase assay
[21] = target: Receptor tyrosine-protein kinase erbB-2 (Homo sapiens) (UniProt P04626); experiment: Inhibition of purified ErbB2 (unknown origin) at 1 uM after 60 mins by ELISA kinase assay
[22] = target: Insulin-like growth factor 1 receptor (Homo sapiens) (UniProt P08069); experiment: Inhibition of purified IGF1R (unknown origin) at 0.1 uM after 60 mins by ELISA kinase assay
[23] = target: Fibroblast growth factor receptor 1 (Homo sapiens) (UniProt P11362); experiment: Inhibition of purified FGFR1 (unknown origin) at 0.1 uM after 60 mins by ELISA kinase assay
[24] = target: Vascular endothelial growth factor receptor 2 (Homo sapiens) (UniProt P35968); experiment: Inhibition of purified KDR (unknown origin) at 0.1 uM after 60 mins by ELISA kinase assay
[25] = target: T1, ALK tyrosine kinase receptor; experiment: Inhibition of ALK-mediated AKT phosphorylation in human H3122 cells; format: cell-based
[26] = target: T1, ALK tyrosine kinase receptor; experiment: Inhibition of ALK-mediated ERK phosphorylation in human H3122 cells; format: cell-based
[27] = target: T1, ALK tyrosine kinase receptor; experiment: Inhibition of ALK-mediated STAT3 phosphorylation in human H3122 cells; format: cell-based
[28] = target: T1, ALK tyrosine kinase receptor; experiment: Inhibition of ALK phosphorylation in human H3122 cells; format: cell-based

CC(C)S(=O)(=O)c1ccccc1Nc1nc(Nc2nc3c(s2)CCN(C)CC3)ncc1Cl
inhibition of growth at 1 µM [1]: 67.7%
inhibition of growth at 0.2 µM [2]: 0.15%

CC(C)S(=O)(=O)c1ccccc1Nc1nc(Nc2nc(C(=O)N3CCCCC3)cs2)ncc1Cl
IC50 [3]: > 1 µM

CNC(=O)c1ccccc1Nc1nc(Nc2nc3c(s2)CCNCC3)ncc1Cl
IC50 [3]: 0.0618 µM
inhibition [4]: 96%
inhibition [5]: 5.7%
inhibition [6]: 20.7%
inhibition [7]: 81.5%
inhibition [8]: 16.3%
inhibition [9]: 63.2%
inhibition [10]: 73.9%
inhibition [11]: 60.1%
IC50 [12]: 0.02 µM
inhibition [13]: 20.5%
inhibition [14]: 96%

CC(C)S(=O)(=O)c1ccccc1Nc1nc(Nc2nc(C(=O)N3CC4CCC(C3)O4)cs2)ncc1Cl
inhibition of growth at 1 µM [1]: 63.4%
inhibition of growth at 0.2 µM [2]: 18.4%

CCOC(=O)c1csc(Nc2ncc(Cl)c(Nc3ccccc3S(=O)(=O)C(C)C)n2)n1
IC50 [3]: > 1 µM

CC(C)S(=O)(=O)c1ccccc1Nc1nc(Nc2ncc(C(=O)N3C[C@H]4CN(C)C[C@H]4C3)s2)ncc1Cl
IC50 [3]: > 1 µM

CC(C)S(=O)(=O)c1ccccc1Nc1nc(Nc2nc3c(s2)CCN(CCN2CCOCC2)CC3)ncc1Cl
inhibition of growth at 1 µM [1]: 83.5%
inhibition of growth at 0.2 µM [2]: 19.8%

CC(C)S(=O)(=O)c1ccccc1Nc1nc(Nc2nc3c(s2)CN(C)CC3)ncc1Cl
IC50 [3]: > 1 µM

CC(C)S(=O)(=O)c1ccccc1Nc1nc(Nc2nc3c(s2)CCN(C(=O)CO)CC3)ncc1Cl
inhibition of growth at 1 µM [1]: 80.7%
inhibition of growth at 0.2 µM [2]: 3.7%

CC(C)S(=O)(=O)c1ccccc1Nc1nc(Nc2nc(C(=O)N3CC4(CCNCC4)C3)cs2)ncc1Cl
IC50 [3]: > 1 µM

CC(C)S(=O)(=O)c1ccccc1Nc1nc(Nc2nc(C(=O)N3C[C@H]4CN(C)C[C@H]4C3)cs2)ncc1Cl
inhibition of growth at 1 µM [1]: 61.4%
inhibition of growth at 0.2 µM [2]: -0.1%

CC(C)S(=O)(=O)c1ccccc1Nc1nc(Nc2nc(C(=O)O)cs2)ncc1Cl
IC50 [3]: > 1 µM

CC(C)S(=O)(=O)c1ccccc1Nc1nc(Nc2nc3c(s2)CNCC3)ncc1Cl
IC50 [3]: > 1 µM

COc1cc(NC(=O)c2csc(Nc3ncc(Cl)c(Nc4ccccc4S(=O)(=O)C(C)C)n3)n2)cc(OC)c1OC
IC50 [3]: > 1 µM

CC(C)S(=O)(=O)c1ccccc1Nc1nc(Nc2nc3c(s2)CCN(CC2CCOCC2)CC3)ncc1Cl
inhibition of growth at 1 µM [1]: 59.9%
inhibition of growth at 0.2 µM [2]: -13.7%

CCOC(=O)N1CCc2nc(Nc3ncc(Cl)c(Nc4ccccc4S(=O)(=O)C(C)C)n3)sc2CC1
inhibition of growth at 1 µM [1]: 16.1%
inhibition of growth at 0.2 µM [2]: 5.5%

CCCCOC(=O)c1csc(Nc2ncc(Cl)c(Nc3ccccc3S(=O)(=O)C(C)C)n2)n1
IC50 [3]: > 1 µM

CC(C)S(=O)(=O)c1ccccc1Nc1nc(Nc2nc(C(=O)NCCN3CCOCC3)cs2)ncc1Cl
inhibition of growth at 1 µM [1]: 73.6%
inhibition of growth at 0.2 µM [2]: 29.5%

CC(C)S(=O)(=O)c1ccccc1Nc1nc(Nc2nc(C(=O)N3CCOCC3)cs2)ncc1Cl
IC50 [3]: > 1 µM

CC(C)S(=O)(=O)c1ccccc1Nc1nc(Nc2nc3c(s2)CCN(C(=O)C2CCOCC2)CC3)ncc1Cl
IC50 [3]: 0.0124 µM
IC50 [15]: 0.024 µM
inhibition [4]: 4.9%
inhibition [16]: 18%
inhibition [17]: 5.6%
inhibition [18]: 15.8%
inhibition [5]: 52.8%
inhibition [19]: 100%
inhibition [6]: 51.3%
inhibition [7]: 77%
inhibition [20]: 53.5%
inhibition [8]: 0%
inhibition [9]: 23%
inhibition [10]: 45.6%
inhibition [21]: 0%
inhibition [11]: 33.4%
inhibition [22]: 15.8%
inhibition [23]: 69.2%
inhibition [24]: 40.6%
inhibition of growth at 1 µM [1]: 84.1%
inhibition of growth at 0.2 µM [2]: 23.2%
inhibition [25]: Dose-dependent effect
inhibition [26]: Dose-dependent effect
inhibition [27]: Dose-dependent effect
inhibition [28]: Dose-dependent effect

COC(=O)c1csc(Nc2ncc(Cl)c(Nc3ccccc3S(=O)(=O)C(C)C)n2)n1
IC50 [3]: > 1 µM

CNC(=O)c1csc(Nc2ncc(Cl)c(Nc3ccccc3S(=O)(=O)C(C)C)n2)n1
IC50 [3]: > 1 µM
